This is an account of results in ChEMBL document CHEMBL1201862, “PubChem BioAssay data set” (2004).

Each structure is given as a SMILES string. Activity calls are given as the source filed them. A value given as a limit tells only on which side of the number the result lay.

The nature of data set [1]: Trypanosoma cruzi growth suppression in host cells – NIH3T3 host cells, beta-gal luminescence, confirmation (AID 2044).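 Further: intracellular parasites grown in NIH/3T3 mouse fibroblasts as host cells; luminescent beta-galactosidase reporter signal from transgenic T. cruzi replicating inside host cells; inhibitors lower the luminescence signal.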 The format is functional, cell-based.
The nature of data set [2]: NIH3T3 cell viability loss – ATP luminescence, mouse fibroblasts, counter-screen, dose response (AID 2010).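 Further: cells exposed to compound for about 90 hours before reading.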 Type of data set: functional, cell-based.
Data set [3] is described as follows: luciferase reporter signal suppression in cells – H4 neuroglioma cells, luminescence, dose response (AID 1990). The format is functional, cell-based.
Data set [4] is described as follows: Luminescence Cell-Based Dose Response HTS to Identify Inhibitors of 5'UTR Stem-Loop Driven Prion Protein mRNA Translation in H4 Neuroglioblastoma Cells. [Related pubchem assays: 1827 (Project Summary), 1813 (Primary HTS)]. Type of data set: functional.
Data set [5] is described as follows: alpha-synuclein stem-loop luciferase translation blockers – H4 neuroglioma cells, luminescence, confirmation (AID 1988). The format is functional, cell-based.
The target in data set [6] is Cytochrome P450 2D6 (Homo sapiens, UniProt P10635).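 Further: CYP2D6 member of a cytochrome P450 panel assay.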
Cytochrome P450 2D6, sequence (P10635 whole entry): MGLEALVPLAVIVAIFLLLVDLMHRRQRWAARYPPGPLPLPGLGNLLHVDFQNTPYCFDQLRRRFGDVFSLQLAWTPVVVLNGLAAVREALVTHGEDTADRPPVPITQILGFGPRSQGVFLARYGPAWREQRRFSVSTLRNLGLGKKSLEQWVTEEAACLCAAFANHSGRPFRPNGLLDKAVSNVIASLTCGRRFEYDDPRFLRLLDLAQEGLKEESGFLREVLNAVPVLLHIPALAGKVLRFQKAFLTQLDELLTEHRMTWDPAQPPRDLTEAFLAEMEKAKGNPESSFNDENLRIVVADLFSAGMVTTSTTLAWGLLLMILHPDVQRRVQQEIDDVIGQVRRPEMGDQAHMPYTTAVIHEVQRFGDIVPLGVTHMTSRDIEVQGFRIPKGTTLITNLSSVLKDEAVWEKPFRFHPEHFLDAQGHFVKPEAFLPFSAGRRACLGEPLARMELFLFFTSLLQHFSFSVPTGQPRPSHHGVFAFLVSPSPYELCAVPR
Data set [7] deals with INS1. Put plainly: INS-1E survival protection against cytokine death – cell-based, luminescence, retest, dose response (AID 449756).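 Further: cell death triggered by IL-1 beta plus TNF-alpha plus IFN-gamma mixture; protective hits raise ATP signal compared with cytokine alone wells.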 To be noted: Rattus norvegicus. The format is functional.
The target in data set [8] is Cytochrome P450 2C19 (Homo sapiens, UniProt P33261). Put plainly: Cytochrome panel assay with activity outcomes. Panel member name: p450-cyp2c19 Compounds with AC50 equal or less than 10 uM are considered active. The format is functional.
Cytochrome P450 2C19, sequence (P33261 whole entry): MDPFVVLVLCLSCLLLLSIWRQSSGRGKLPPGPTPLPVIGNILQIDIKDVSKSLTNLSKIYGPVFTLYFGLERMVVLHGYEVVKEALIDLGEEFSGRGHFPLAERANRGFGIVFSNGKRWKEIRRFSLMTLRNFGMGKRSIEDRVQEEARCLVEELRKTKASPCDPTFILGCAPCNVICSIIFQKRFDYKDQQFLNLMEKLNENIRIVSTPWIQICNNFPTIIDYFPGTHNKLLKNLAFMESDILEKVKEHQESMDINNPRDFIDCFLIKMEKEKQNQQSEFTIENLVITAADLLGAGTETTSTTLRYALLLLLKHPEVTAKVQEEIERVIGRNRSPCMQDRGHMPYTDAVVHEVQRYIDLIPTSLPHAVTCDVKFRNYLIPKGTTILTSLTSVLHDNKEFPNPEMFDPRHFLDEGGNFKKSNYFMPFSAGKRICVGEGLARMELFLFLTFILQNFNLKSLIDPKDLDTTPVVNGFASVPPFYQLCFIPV
Data set [9] has as its target Cytochrome P450 2C9 (Homo sapiens, UniProt P11712).

Cytochrome P450 2C9, sequence (P11712 whole entry): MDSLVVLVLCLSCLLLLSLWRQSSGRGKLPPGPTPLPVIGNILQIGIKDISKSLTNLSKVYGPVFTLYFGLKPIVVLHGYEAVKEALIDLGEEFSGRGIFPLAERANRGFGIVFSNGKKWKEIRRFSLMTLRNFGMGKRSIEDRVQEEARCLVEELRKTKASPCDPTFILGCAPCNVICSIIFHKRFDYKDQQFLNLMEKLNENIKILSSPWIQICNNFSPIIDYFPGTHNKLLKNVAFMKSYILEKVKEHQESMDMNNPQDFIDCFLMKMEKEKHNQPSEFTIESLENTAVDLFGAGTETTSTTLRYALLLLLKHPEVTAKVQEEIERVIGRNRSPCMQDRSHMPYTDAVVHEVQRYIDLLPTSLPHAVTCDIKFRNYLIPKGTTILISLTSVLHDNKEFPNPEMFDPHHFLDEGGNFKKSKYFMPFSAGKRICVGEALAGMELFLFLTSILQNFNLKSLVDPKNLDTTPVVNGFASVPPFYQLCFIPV

Consider `CN1c2ccc([N+](=O)[O-])cc2N(C)C1(C)c1ccccc1` (configuration not stated), for which the values for the EC50 in data set [1] and in [2] were 2.85 µM (active) and > 60 µM (not active), respectively.

For `Cc1cccc(C(=O)N[C@H](C(=O)Nc2nc3ccc(S(C)(=O)=O)cc3s2)C(C)C)c1`, the EC50 in data set [3], in [4] and in data set [5] was > 120 µM (not active) throughout.

`COc1cccc(Nc2ncc3nc(-c4cccs4)c(=O)n(C[C@H]4CCCO4)c3n2)c1`: in [6], the AC50 is 15.8 µM (inconclusive).

In the case of `CC(=O)NC(C)c1cc(Cl)c2cccnc2c1O` (configuration not stated), in data set [7], the AC50 is 4.08 µM (active).

Regarding `O=C(Nc1ccc([N+](=O)[O-])cn1)c1cc(-c2cccc(Cl)c2)nc2ccccc12`, the EC50 is 0.809 µM (active) in data set [1] and > 30 µM (not active) in data set [2].

For `CCc1c2c(nc3ccc(OC)cc13)COC2`, the AC50 in data set [8] (read-out: AC50) and in data set [6] was 20 µM (inconclusive) throughout.

Take `COc1ccc(-c2ccc([C@H]3[C@@H]4C=CCC[C@@]4(C)C(=O)N3Cc3ccccc3)c(F)c2)cc1`: the AC50 in data set [7] was 13.2 µM (active).

On to `COc1cccc(-n2c(CN3CCN(c4cccc(C)c4)C(C)C3)nc3ccc([N+](=O)[O-])cc3c2=O)c1` (configuration not stated), for which the EC50 in data set [1] is 1.91 µM (active); in data set [2] it was > 60 µM (not active).

For the compound `CC1CCN(C(NC(=O)c2ccco2)C(=O)c2ccccc2)CC1` (configuration not stated), in [6], the AC50 is 15.8 µM (inconclusive).

`COc1ncc2nc(-c3cccs3)c(=O)n(Cc3ccc(F)cc3)c2n1`: the AC50 in data set [6] is 0.398 µM (inconclusive).

Regarding `CCCn1c(-c2cccc([N+](=O)[O-])c2)nc2c1c(=O)[nH]c(=O)n2Cc1ccccc1`, the results for the EC50 in data set [3], in data set [4] and in data set [5] were 17.5 µM (active), > 120 µM (not active) and > 120 µM (not active), respectively.

For the compound `Clc1ccccc1-c1nccc(NCCN2CCOCC2)n1`, in data set [6], the AC50 is 12.6 µM (inconclusive).

With `COc1cc(C(=O)NC(=S)NNC(=O)c2cnccn2)cc(OC)c1OC`, in data set [7], the AC50 was 1.27 µM (active).

Regarding `COc1ccc2[nH]c(C)c(CCN(Cc3cccs3)C(S)=Nc3ccc(F)cc3)c2c1`, the EC50 in [1] was 4.21 µM (active); in [2], > 60 µM (not active).

On to `Cc1c(CCO)c(=O)n(C)n1C(=O)c1ccc(F)cc1`, for which, in [6], the AC50 is 22.4 µM (inconclusive).

Take `O=C(Cn1ncc2c(=O)oc3ccccc3c21)N1CCCc2ccccc21`: the EC50 in [3] is > 120 µM (not active); in data set [4], 6.05 µM (active); in [5], > 120 µM (not active).

`CCN(CC)CC#CCC(O)(c1ccccc1)C1CCCC1` (configuration not stated): the EC50 in [1] was 0.52 µM (active); in [2], > 60 µM (not active).

Consider `N#Cc1cccc(NC(=O)N2CCCC3(CCN(C(=O)c4ccncc4)CC3)C2)c1`, for which the AC50 in data set [6] was 25.1 µM (inconclusive).

`COc1ccc(CNC(=O)C(C)Sc2nc3ccccc3c(=O)n2CCCN2CCOCC2)cc1` (configuration not stated): the values for the EC50 in [3], in data set [4] and in [5] were 23.9 µM (active), > 120 µM (not active) and > 120 µM (not active), respectively.

For `O=C(CON1C(=O)c2ccccc2C1=O)c1ccccc1`, the AC50 in data set [9] is 6.31 µM (inconclusive).

For the compound `c1ccc(CCc2cccnc2)nc1`, the AC50 in data set [6] was 7.94 µM (inconclusive).

`CCN(CC)C(=O)C1CC(=O)N(c2ccc(OC)cc2)C1c1ccc(OC)cc1` (configuration not stated): in data set [8] (read-out: AC50), the AC50 is 39.8 µM (inconclusive).

For `CCN(CC)c1ccc2c(Cl)cc(=O)oc2c1`, the half-maximal activity concentration (AC50) in [9] was 31.6 µM (inconclusive).

As for `O=C(N=Nc1c(O)[nH]c2ccc(Br)cc12)c1cc(-c2cccs2)nc2ccccc12`, the EC50 in data set [3] was > 120 µM (not active); in [4] it was 16.6 µM (active); in [5], 9.7 µM (active); in [1] it was 1.41 µM (active); in data set [2], > 60 µM (not active).

For `Cc1ccc(C(=O)Nc2cc3c(oc2=O)CCCC3=O)cc1`, the AC50 in data set [6] is 0.01 µM (inconclusive).

Turning to `CC(=O)OC[C@@H]1O[C@H](C/C=N\O[C@@H](C)c2cn([C@H]3COC[C@H]3O)nn2)C=C[C@@H]1OC(C)=O`, the AC50 entry in [8] is listed as “inconclusive”.

For the compound `Clc1ccccc1-c1nc(N2CCNCC2)c2ccccc2n1`, in data set [6], the AC50 was 31.6 µM (inconclusive).

On to `CCC/C=C(\CCC)C(NC(=O)Oc1ccc(F)cc1)c1ccc(C(=O)OC)cc1` (configuration not stated), for which, in data set [9], the AC50 was 39.8 µM (inconclusive).

Take `O=c1cc(N2CCCCC2)c(-c2ccccc2)nn1Cc1ccc(F)cc1`: the half-maximal effective concentration (EC50) was 2.17 µM (active) in data set [1] and 9.08 µM (active) in [2].

As to `COc1ccc(Cc2noc(CN3CCCN(C4Cc5ccccc5C4)CC3)n2)cc1OC`, the figures for the EC50 in [1] and in data set [2] were 1.3 µM (active) and > 60 µM (not active), respectively.

With `COc1ccc(OCCSc2nc[nH]n2)cc1`, the AC50 in data set [9] is 22.4 µM (inconclusive).

For `COc1ccccc1N1CCN(c2nc(C)nc3c2oc2ccccc23)CC1`, the EC50 was 10.3 µM (active) in data set [3], 0.842 µM (active) in data set [4] and 0.193 µM (active) in data set [5].

For `CN(Cc1ccco1)c1ncnc2ccc(-c3ccccc3C(F)(F)F)cc12`, in data set [9], the AC50 was 1 µM (inconclusive).

As to `COC(=O)[C@@]1(Cc2ccc(F)cc2)[C@H]2c3cc(C(=O)N(C)C)n(CCCNc4ccc(C(F)(F)F)cc4Cl)c3C[C@H]2CN1C(=O)c1ccccc1`, the AC50 in data set [8] (read-out: AC50) was 25.1 µM (inconclusive).

Regarding `COc1cccc2c1OC1(C)CC2NC(=O)N1Cc1ccccc1` (configuration not stated), the values for the EC50 in data set [3], in data set [4] and in data set [5] were 21.6 µM (active), 7.38 µM (active) and 16.1 µM (active), respectively.

Turning to `COc1ccc(CN2CCCC(CO)(Cc3ccc(F)cc3)C2)cc1C` (configuration not stated), the results for the EC50 in [1] and in [2] were 0.64 µM (active) and 9.58 µM (active), respectively.

As to `CS(=O)(=O)NCCSCc1c(Cl)cccc1Cl`, the EC50 in data set [1] is 36.9 µM (active); in [2], > 60 µM (inconclusive).

For the compound `Cc1ccccc1NC(=O)NCC1CCN(Cc2cccc(Cl)c2)CC1`, the EC50 in data set [1] is 1.14 µM (active); in [2], > 30 µM (not active).

Take `Fc1cccc(Cl)c1-c1nnc2ccc3ccccc3n12`: in [7], the AC50 was 10 µM (active).

For the compound `COc1cccc(CC2(CO)CCCN(Cc3ccc(CN4CCCCC4)s3)C2)c1` (configuration not stated), the values for the EC50 in data set [1] and in [2] were 0.253 µM (active) and 9.85 µM (active), respectively.

Regarding `COc1ccc(OC)c(-c2nc(CN3CCCCC3c3cccnc3)c(C)o2)c1` (configuration not stated), the EC50 is 2.02 µM (active) in data set [1] and > 60 µM (not active) in [2].

Take `O=c1c(Cc2ccccc2)c(O)nc2n1CCS2`: the AC50 in data set [8] (read-out: AC50) and in [9] was 14.1 µM (inconclusive) in each case.

Take `NC(=O)c1[nH]cnc1N`: the EC50 in [1] was > 30 µM (not active); in data set [2], 4.94 µM (active).

Regarding `COc1cc2c3cc1Oc1cc(ccc1O)C[C@@H]1c4c(cc(OC)c(O)c4Oc4ccc(cc4)C[C@H]3[N+](C)(C)CC2)CC[N+]1(C)C`, the AC50 result in [8] is reported as “inconclusive”.

`CCCN(CCC)C(=S)NC(=O)c1ccc(Cl)cc1Cl`: in [6], the AC50 was 10 µM (inconclusive).

`CC(=O)n1cc([C@H]2C=C(C(=O)N3CCN(Cc4ccccc4)CC3)O[C@@H](OCc3ccc(CO)cc3)C2)c2ccccc21`: the EC50 in data set [1] was 0.435 µM (active); in data set [2] it was > 30 µM (not active).

Regarding `O=C(CCc1ccc(S(=O)(=O)NC2CCCCC2)cc1)N(Cc1ccccc1)Cc1ccccc1`, the AC50 in [6] is 12.6 µM (inconclusive).

As to `Cc1c(C(=O)N(Cc2ccccc2)C(C)C)oc2ccc(S(=O)(=O)N3CCOCC3)cc12`, the AC50 in [7] was 48 µM (active).

With `Cc1cccc(N(C)S(=O)(=O)c2ccc3[nH]c(=O)c(=O)[nH]c3c2)c1`, the AC50 in data set [8] (read-out: AC50) was 20 µM (inconclusive).

As for `Cc1noc(/C=C/N(C)C)c1S(=O)(=O)N1CCCC(C(=O)NC2CCCCC2)C1` (configuration not stated), the EC50 in [1] was 0.484 µM (active); in data set [2] it was 6.5 µM (active).

Turning to `Cc1ccc2cc(CN(Cc3ccco3)C(=O)NC3CCCCC3)c(O)nc2c1C`, the results for the EC50 in data set [3], in data set [4] and in data set [5] were 15.9 µM (active), 16.4 µM (active) and 13.6 µM (active), respectively.

Take `Cc1cc(C)c2c(ccc3cccc[n+]32)c1.[O-][Cl+3]([O-])([O-])[O-]`: the AC50 in data set [7] is 4.61 µM (active).

As to `C/C(=N\Nc1nc(-c2ccccn2)nc2ccccc12)c1ccc(F)cc1`, the EC50 in [3] is 9.76 µM (active); in data set [4] it was 3.74 µM (active); in data set [5] it was 8.26 µM (active). The AC50 in data set [7] was 41.9 µM (active).

Turning to `COc1cc(C(=O)NCC(=O)N/N=C(C)\C=C\c2ccccc2)cc(OC)c1OC`, the figures for the EC50 in data set [3], in data set [4] and in data set [5] were > 120 µM (not active), 24.9 µM (active) and > 120 µM (not active), respectively.

For the compound `CCN(CC)c1ccc(/N=C/c2cc(Br)ccc2O)cc1`, the values for the EC50 in [1] and in data set [2] were 4.39 µM (active) and > 60 µM (inconclusive), respectively.

As for `O=C(N/N=C/c1ccc([N+](=O)[O-])o1)c1ccc2c(c1)OCO2`, the EC50 in [1] was 0.172 µM (active); in [2], > 30 µM (not active).

On to `O=C1CC(c2ccc3c(c2)OCO3)CN1` (configuration not stated), for which the AC50 in data set [8] (read-out: AC50) was 39.8 µM (inconclusive).

As for `CC(C)c1ccc(Cn2ccc3c4c(N)nc(NC5CC5)nc4ccc32)cc1`, in [8] (read-out: AC50), the AC50 was 31.6 µM (inconclusive).

In the case of `CN(C)CCO[C@@H](c1ccc(Cl)cc1)c1ccccn1` [ROTOXAMINE], the results for the AC50 result in data set [8] and in [6] were “inconclusive” and 12.6 µM (inconclusive), respectively.
